This passage reports TGI and GI50 results from PubChem BioAssay (NCI).

Test systems include UACC-257 melanoma; HCT-116 colon; UO-31 renal; RPMI-8226 leukemia; SNB-19 CNS; PC-3 prostate; SNB-75 CNS; SF-295 CNS; T-47D breast.
Common to all, as to assay: NCI tumour cell line growth inhibition, 48 h

The structures appear in SMILES notation. Where “and” joins values, the source holds several entries; their conditions need not be identical. Equal entries are not always repeated.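 Test compounds were applied to cells in 96-well plates for 48 hours at 5 doses. The concentration for 50% growth inhibition is given as GI50. TGI: total growth inhibition.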 Some results are limits rather than exact numbers.

For the molecule `BrC1(c2ccccc2)C[n+]2c(-c3ccccc3)cc(-c3ccccc3)cc2-c2ccccc21` (stereo not drawn), the TGI came out at 2.55 µM in the assay on UACC-257 melanoma; 8.32 µM in the assay on HCT-116 colon; 3.31 µM with UO-31 renal; 1.13 µM with RPMI-8226 leukemia; 17.5 µM in the assay with SNB-19 CNS; 3.45 µM in the assay with PC-3 prostate. Besides, the TGI was 0.621 µM with SNB-75 CNS and 5.68 µM in the assay on SF-295 CNS.

As for `CCOC(=O)N1CCNCCN(C(=O)OCC)CCNCC1`, the TGI in the assay on UACC-257 melanoma, in the assay with HCT-116 colon, in the assay on UO-31 renal, in the assay on RPMI-8226 leukemia, in the assay on SNB-19 CNS and in the assay on PC-3 prostate was > 100 µM throughout. Besides, the TGI with SF-295 CNS and with T-47D breast was > 100 µM throughout.

In the case of `NCCCNc1nc2ccccc2c2c(=O)c3cc(Cl)ccc3sc12`, the GI50 in the assay with UACC-257 melanoma is 2 µM; in the assay with UO-31 renal it was 1.28 µM; with PC-3 prostate, 1.69 µM; in the assay on SNB-75 CNS, 1.4 µM. Moreover, the TGI in the assay with UACC-257 melanoma turned out to be 3.74 µM; in the assay with UO-31 renal, 2.58 µM; in the assay with PC-3 prostate, 3.23 µM; with SNB-75 CNS, 2.79 µM.

As to `COC(=O)c1c(O)ccc2c1c1c(n2Cc2ccc(OC)cc2)C(=O)c2ccccc2C1`, the TGI was > 100 µM in the assay on UACC-257 melanoma; > 100 µM in the assay on HCT-116 colon; > 100 µM in the assay with UO-31 renal; 31.5 µM in the assay on RPMI-8226 leukemia; > 100 µM with SNB-19 CNS; 59.5 µM with PC-3 prostate. In addition, the TGI with SNB-75 CNS and with SF-295 CNS was > 100 µM in each case.

`COc1cccc(/C=N/[N-]C(N)=O)c1[O-].[Cu+2].[OH3+]`: the TGI was 28.5 µM in the assay with UACC-257 melanoma; 15.9 µM in the assay with HCT-116 colon; 31.7 µM in the assay on UO-31 renal; > 100 µM in the assay with RPMI-8226 leukemia; 8.97 µM and 28.5 µM in the assay with SNB-19 CNS; 25.1 µM in the assay with SNB-75 CNS. For the same molecule, in the assay with SF-295 CNS, the TGI is 28.9 µM. Also, the GI50 is 4.09 µM in the assay with HCT-116 colon and 14.9 µM with SNB-19 CNS.

`O=c1c2[nH]cnc2n(-c2ccccc2)c(=S)n1-c1ccccc1`: the TGI in the assay with UACC-257 melanoma, in the assay on HCT-116 colon, in the assay with UO-31 renal, with RPMI-8226 leukemia, in the assay with PC-3 prostate and in the assay with SNB-75 CNS was > 100 µM each time. The TGI in the assay with SF-295 CNS and in the assay on T-47D breast was > 100 µM each time.

With `CC1=NC(=N)N=C(C)C1N=Nc1ccc2nc(C)[nH]c2c1` (stereo not drawn), the TGI with UACC-257 melanoma, in the assay with HCT-116 colon, in the assay on RPMI-8226 leukemia, in the assay with SNB-19 CNS, with PC-3 prostate and in the assay with SNB-75 CNS was > 100 µM in each case. Besides, the TGI with SF-295 CNS and in the assay with T-47D breast was > 100 µM in each case.

Turning to `COC(=O)Nc1cc(OCCCOC(C)=O)c2[nH]c(C(=O)OC)cc2c1C[C@H](O)CO`, the TGI in the assay on UACC-257 melanoma, in the assay with HCT-116 colon, in the assay with UO-31 renal, in the assay with RPMI-8226 leukemia, in the assay on SNB-19 CNS and in the assay with PC-3 prostate was > 100 µM throughout. The TGI in the assay with SF-295 CNS and in the assay on T-47D breast was > 100 µM each time.

Turning to `CC(=O)CCC1(C(=O)OCC(C)C)CCCC1=O` (stereo not drawn), the TGI in the assay on UACC-257 melanoma, in the assay on HCT-116 colon, in the assay on UO-31 renal, in the assay on SNB-19 CNS, in the assay on PC-3 prostate and with SNB-75 CNS was > 100 µM throughout. Besides, the TGI with SF-295 CNS and in the assay with T-47D breast was > 100 µM each time.

Consider `CCOC(=O)CNC(=O)c1[nH]cnc1/N=N/N(C)C`, for which the TGI in the assay on UACC-257 melanoma, in the assay with HCT-116 colon, with UO-31 renal, in the assay on RPMI-8226 leukemia, with SNB-19 CNS and with SNB-75 CNS was > 100 µM throughout. Moreover, the TGI in the assay on SF-295 CNS was > 100 µM.

`O=S(Nc1ccccc1)c1ccc(Cl)cc1` (stereo not drawn): the TGI in the assay on UACC-257 melanoma, in the assay on HCT-116 colon, with UO-31 renal, in the assay on RPMI-8226 leukemia, in the assay with SNB-19 CNS and in the assay with SF-295 CNS was > 100 µM each time. Besides, the TGI with T-47D breast is > 100 µM.

In the case of `CCc1c(O)nc(Nc2nc3ccccc3[nH]2)[nH]c1=O`, the TGI in the assay on UACC-257 melanoma, with HCT-116 colon, in the assay on UO-31 renal, in the assay with SNB-19 CNS, with PC-3 prostate and in the assay on SNB-75 CNS was > 100 µM throughout. The TGI in the assay with SF-295 CNS is > 100 µM.

As to `Nc1c(C(=O)O)c2ccc([N+](=O)[O-])cc2c(=O)n1-c1nc2ccccc2s1`, the TGI with HCT-116 colon, with UO-31 renal, in the assay with RPMI-8226 leukemia, in the assay with SNB-19 CNS, in the assay on PC-3 prostate and in the assay on SNB-75 CNS was > 100 µM each time. The TGI with SF-295 CNS and with T-47D breast was > 100 µM in each case.

As to `CCOC(=O)C(Cc1ccc(N=NN(C)C)cc1)NC(=O)CC1c2ccccc2-c2ccccc21` (stereo not drawn), the TGI in the assay on UACC-257 melanoma, with HCT-116 colon, in the assay on UO-31 renal, in the assay with RPMI-8226 leukemia, in the assay on SNB-19 CNS and in the assay on SNB-75 CNS was > 100 µM each time. In addition, the TGI in the assay on SF-295 CNS was > 100 µM.

Turning to `[N-]=[N+]=CC(=O)C1CCN(c2ccccc2)C1=O` (stereo not drawn), the TGI in the assay on UACC-257 melanoma, in the assay on HCT-116 colon, in the assay on UO-31 renal, with RPMI-8226 leukemia, with SNB-19 CNS and in the assay with PC-3 prostate was > 10 µM each time. Moreover, the TGI in the assay with SF-295 CNS and in the assay on T-47D breast was > 10 µM in each case.

Take `C[n+]1c2ccccc2n2c3ccccc3c(NCCCn3ccnc3)c(C#N)c21`: the TGI in the assay with UACC-257 melanoma was 35.5 µM; in the assay on HCT-116 colon, 10.1 µM; in the assay with UO-31 renal, 42.6 µM; in the assay on SNB-19 CNS, > 31.2 µM; in the assay with PC-3 prostate, 9.62 µM; with SNB-75 CNS it was 4.66 µM. Besides, the TGI is 17.4 µM with SF-295 CNS and > 19.6 µM in the assay on T-47D breast.

Take `C=CCOC(C)(C)C1=CCC(C)CC1` (stereo not drawn): the TGI with UACC-257 melanoma, in the assay on HCT-116 colon, with UO-31 renal, with RPMI-8226 leukemia, with SNB-19 CNS and in the assay on PC-3 prostate was > 100 µM in each case. In addition, the TGI with SNB-75 CNS and in the assay with SF-295 CNS was > 100 µM each time.
